Laboratory results as given in patent US7026348B2, “Indole sPLA2 inhibitors” (Eli Lilly and Company, priority 1998, dated 2006).
Counter-ions that a name gives are not always drawn.

Biological target: T1, recombinant human secreted phospholipase A2 (Homo sapiens, UniProt P14555)
T1 sequence (P14555 21-144): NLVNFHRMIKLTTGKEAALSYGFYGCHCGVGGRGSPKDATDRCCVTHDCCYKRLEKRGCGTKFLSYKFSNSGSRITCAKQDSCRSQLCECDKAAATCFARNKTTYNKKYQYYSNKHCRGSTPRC
Assay: chromogenic assay of recombinant human secreted phospholipase A2 inhibition
Type: biochemical
Conditions: diheptanoyl thio-PC substrate, pH 7.5, 40° C. for 30 minutes, absorbance at 405 nanometers, triplicate; read-out: Inhibition of human secreted PLA2 IC50 ± mean deviation
Description: The following chromogenic assay procedure was used to identify and evaluate inhibitors of recombinant human secreted phospholipase A2. The assay described herein has been adapted for high volume screening using 96 well microtiter plates. A general description of this assay method is found in the article, “Analysis of Human Synovial Fluid Phospholipase A2 on Short Chain Phosphatidylcholine-Mixed Micelles: Development of a Spectrophotometric Assay Suitable for a Microtiterplate Reader”, by Laure J. Reynolds, Lori L. Hughes, and Edward A Dennis, Analytical Biochemistry, 204, pp. 190-197, 1992 (the disclosure of which is incorporated herein by reference):
REACTION BUFFER— • CaCl2.2H2O (1.47 g/L) • KCl (7.455 g/L) • Bovine Serum Albumin (fatty acid free)(1 g/L) • (Sigma A-7030, product of Sigma Chemical Co., St. Louis Mo., USA) • TRIS HCl (3.94 g/L) • pH 7.5 (adjust with NaOH)
ENZYME BUFFER— • 0.05 NaOAc.3H2O, pH 4.5 • 0.2 NaCl • Adjust pH to 4.5 with acetic acid
DTNB—5,5′-dithiobis-2-nitrobenzoic acid
RACEMIC DIHEPTANOYL THIO—PC
racemic 1,2-bis(heptanoylthio)-1,2-dideoxy-sn-glycero-3-phosphorylcholine
TRITON X-100™ prepare at 6.249 mg/ml in reaction buffer to equal […].
A measured volume of racemic dipheptanoyl thio PC supplied in chloroform at a concentration of 100 mg/ml is taken to dryness and redissolved in 10 millimolar
TRITON X-100™ nonionic detergent aqueous solution. Reaction Buffer is added to the solution, then DTNB to give the Reaction Mixture.
The reaction mixture thus obtained contains 1 mM diheptanoly thio-PC substrate, 0.29 mm Triton X-100™ detergent, and 0.12 mm DTMB in a buffered aqueous solution at pH 7.5.
• 1. Add 0.2 ml reaction mixture to all wells; • 2. Add 10 ul test compound (or solvent blank) to appropriate wells, mix 20 seconds; • 3. Add 50 nanograms of sPLA2 (10 microliters) to appropriate wells; • 4. Incubate plate at 40° C. for 30 minutes; • 5. Read absorbance of wells at 405 nanometers with an automatic plate reader.
All compounds were tested in triplicate. Typically, compounds were tested at a final concentration of 5 ug/ml. […] Lack of color development at 405 nanometers evidenced inhibition. Compounds initially found to be active were reassayed to confirm their activity and, if sufficiently active, IC50 values were determined. […] In all cases, % inhibition measured at 405 nanometers generated by enzyme reactions containing inhibitors relative to the uninhibited control reactions was determined. Each sample was titrated in triplicate and result values were averaged for plotting and calculation of IC50 values. IC50 were determined by plotting log concentration versus inhibition values in the range from 10-90% inhibition.

Structure (SMILES) | IC50 [nM]
CCc1c(C(=O)C(N)=O)c2c(OCC(=O)NS(=O)(=O)c3ccccc3)cccc2n1Cc1ccccc1 [Example 2, 1-benzyl-2-ethyl-4-benzenesulfonamidoylmethyloxy-indole-3-glyoxylamide] | 7
CCc1c(C(=O)C(N)=O)c2c(OCC(=O)NS(=O)(=O)c3ccc(CCN)cc3)cccc2n1Cc1ccccc1 [Example 5, 1-benzyl-2-ethyl-4-(4-(2-aminoethyl)benzenesulfonamidoylmethyloxy)-indole-3-glyoxylamide, Hydrochloride Salt] | 16

Second part, the compound after the results:

IC50 [nM] | Structure (SMILES)
12 | CCc1c(C(=O)C(N)=O)c2c(OCC(=O)NS(C)(=O)=O)cccc2n1Cc1ccccc1 [Example 1, 1-benzyl-2-ethyl-4-methanesulfonamidoylmethyloxy-indole-3-glyoxylamide]
17 | CCc1c(C(=O)C(N)=O)c2c(OCC(=O)NS(=O)(=O)C(F)(F)F)cccc2n1Cc1ccccc1 [Example 3, 1-benzyl-2-ethyl-4-trifluoromethanesulfonamidoylmethyloxy-indole-3-glyoxylamide]
9 | CCc1c(C(=O)C(N)=O)c2c(OCC(=O)NS(=O)(=O)c3ccccc3C)cccc2n1Cc1ccccc1 [Example 4, 1-benzyl-2-ethyl-4-(2-methylbenzenesulfonamidoylmethyloxy)-indole-3-glyoxylamide]
